According to US10941136B2, “Quinazoline derivative or its salt and pharmaceutical composition comprising the same” (YUHAN CORPORATION, priority 2016, dated 2021):

Tests used:
Assay type in all cases: biochemical
PI3Kδ (p110δ/p85α)(h) = target: T1, PI3Kδ (p110δ/p85α)(h) (Homo sapiens, UniProt O00329); assay: PI3K-HTRF in vitro enzyme assay, PI3Kδ; conditions: enzyme 0.1 μg/ml
T1 construct: purchased Upstate (Millipore Co, Billerica, Mass., USA) #14˜604
Protocol: (§1) The compounds of the present invention were tested for the activity of phosphatidylinositol 3-kinase delta (PI3K) by using a PI3K enzyme-homogeneous time resolved fluorescence (PI3K-HTRF) kit, which is available under Upstate™ kit (Millipore Co, Billerica, Mass., USA). This kit system measures indirectly the amount of PIP3 produced via PI3K by detecting competitive inhibition of fluorescence complex formation.
(§2) There were used three kinds of buffer solutions, i.e., reaction buffer, stop solution, and detection solution. The reaction buffer was prepared by diluting Reaction Buffer (provided in Update™ kit) with distilled water 4 times and adding DTT to a concentration of 5 mM. The stop solution was prepared by combining STOP A and B Solutions (provided in Update™ kit) in a ratio of 3:1. The detection solution was prepared by combining Detection Solution A, B and C (provided in Update™ kit) in a ratio of 1:1:18. A substrate solution and an ATP solution were prepared by diluting the 1 mM PIP2 (phosphatidyl inositol 4,5 bi-phosphate) stock solution (provided in Update™ kit) and 10 mM ATP (Sigma-aldrich Co., St. Louis, Mo., USA) stock solution with the reaction buffer to concentrations of 20 μM and 40 μM, respectively. An enzyme solution was prepared by diluting PI3Kδ (#14˜604; Upstate™ kit) with the substrate solution to the concentration of 0.2 μg/ml (final reaction concentration: 0.1 μg/ml).
(§3) The test groups were prepared by dissolving each compound in 100% DMSO at 40× the final concentration and then diluting 10-fold with the reaction buffer. 5 μl of each diluted test group solution was transferred to a 384 well low flange white flat bottom microplate (#3572, Corning Life Sciences, Lowell, Mass., USA). We performed centrifuge (1 minute, 1000 rpm) and shaking for 2 minutes after every solution-adding step in this experiment. Next, 10 μl of the enzyme solution was added to each well. A mixed solution of the substrate solution (10 μl) plus 5 μl of the 100% DMSO diluted solution without test compound (i.e., 10% DMSO solution) was used as a negative control. And also, a mixed solution of enzyme solution (10 μl) plus 5 μl of the 100% DMSO diluted solution without test compound (i.e., 10% DMSO solution) was used as a positive control. This plate was pre-incubated for 10 minutes in a 25° C. incubator. After the pre-incubation, the phosphorylation reaction was induced by adding 5 μl of the ATP solution and the plate was incubated for 30 minutes in a 25° C. incubator. This enzyme reaction was stopped by 5 μl of the stop solution and then 5 μl of the detection solution was added thereto. To obtain enough fluorescence responses, the plate was incubated for 2 hours in a 25° C. incubator protected from light.
(§4) The time-resolved fluorescence resonance energy transfer (TR-FRET) rate was measured (emission wavelength: 665 nm, 620 nm, excitation wavelength: 313 nm) by using a Flexstation3 Micro plate reader (Molecular Devices, USA). TR-FRET Rate was calculated based on the Equation 1 and using these TR-FRET Rates, % inhibition rate of each compound was calculated based on the Equation 2. The IC50 values, i.e., the concentration of a test compound that inhibits 50% of PI3Kδ activity in vitro, are generated by Softmax program (Molecular Devices, USA). TR-FRET Rate=(Signal at 665 nm emission wavelength/Signal at 620 nm emission wavelength)×10000 <Equation 1> % Inhibition Rate=[(TR-FRET Rate of the test group−TR-FRET Rate of the positive control group)/(TR-FRET Rate of the negative control group−TR-FRET Rate of the positive control group)]×100 <Equation 2>

PI3Kβ (p110β/p85α)(h) = target: T2, PI3Kβ (p110β/p85α)(h) (Homo sapiens, UniProt P42338); assay: PI3K-HTRF in vitro enzyme assay, PI3Kβ; conditions: enzyme 0.4 μg/ml
T2 construct: purchased Upstate (Millipore Co) #14-603
Protocol: as §1, §2, §3, §4
(§5) The compounds of the present invention were assayed for the activities of PI3K subtypes, i.e., PI3Kα, PI3Kβ and PI3Kγ, using the same procedures as in Experimental Example 1. […]

PI3Kα (p110α/p85α)(h) = target: T3, PI3Kα (p110α/p85α)(h) (Homo sapiens, UniProt P42336); assay: PI3K-HTRF in vitro enzyme assay, PI3Kα; conditions: enzyme 0.1 μg/ml
T3 construct: purchased Upstate (Millipore Co) #14-602
Protocol: as §1, §2, §3, §4, §5

PI3Kγ (p120γ)(h) = target: T4, PI3Kγ (p120γ)(h) (Homo sapiens, UniProt P48736); assay: PI3K-HTRF in vitro enzyme assay, PI3Kγ; conditions: enzyme 0.4 μg/ml
T4 construct: purchased Upstate (Millipore Co) #14-558
Protocol: as §1, §2, §3, §4, §5

T2 sequence (P42338 whole entry): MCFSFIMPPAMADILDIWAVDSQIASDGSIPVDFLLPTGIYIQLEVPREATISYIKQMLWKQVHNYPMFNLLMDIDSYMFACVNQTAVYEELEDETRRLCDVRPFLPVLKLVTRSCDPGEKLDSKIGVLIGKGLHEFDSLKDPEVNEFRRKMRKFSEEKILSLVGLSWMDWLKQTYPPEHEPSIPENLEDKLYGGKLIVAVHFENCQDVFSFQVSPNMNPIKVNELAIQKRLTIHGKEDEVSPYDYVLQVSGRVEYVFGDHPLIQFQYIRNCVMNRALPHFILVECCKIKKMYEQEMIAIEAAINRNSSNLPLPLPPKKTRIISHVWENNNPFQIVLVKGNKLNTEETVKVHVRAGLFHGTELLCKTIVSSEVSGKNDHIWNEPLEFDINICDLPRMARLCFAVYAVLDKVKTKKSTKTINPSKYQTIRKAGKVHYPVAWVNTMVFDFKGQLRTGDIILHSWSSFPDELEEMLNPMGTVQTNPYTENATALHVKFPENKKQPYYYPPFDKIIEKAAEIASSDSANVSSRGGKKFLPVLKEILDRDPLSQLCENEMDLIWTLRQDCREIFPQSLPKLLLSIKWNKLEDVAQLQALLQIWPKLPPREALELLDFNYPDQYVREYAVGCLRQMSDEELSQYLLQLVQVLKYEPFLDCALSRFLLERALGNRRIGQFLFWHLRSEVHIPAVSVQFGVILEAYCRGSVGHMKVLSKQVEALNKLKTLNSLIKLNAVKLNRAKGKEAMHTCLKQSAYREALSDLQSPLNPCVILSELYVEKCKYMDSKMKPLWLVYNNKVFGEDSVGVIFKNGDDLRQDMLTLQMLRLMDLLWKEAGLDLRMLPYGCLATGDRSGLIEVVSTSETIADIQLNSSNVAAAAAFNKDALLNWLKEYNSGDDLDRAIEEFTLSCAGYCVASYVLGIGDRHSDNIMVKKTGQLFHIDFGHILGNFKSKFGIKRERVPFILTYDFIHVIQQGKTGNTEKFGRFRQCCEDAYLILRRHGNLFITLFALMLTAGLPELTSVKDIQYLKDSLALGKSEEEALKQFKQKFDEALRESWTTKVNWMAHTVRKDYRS
T2 sequence (P27986 whole entry partner): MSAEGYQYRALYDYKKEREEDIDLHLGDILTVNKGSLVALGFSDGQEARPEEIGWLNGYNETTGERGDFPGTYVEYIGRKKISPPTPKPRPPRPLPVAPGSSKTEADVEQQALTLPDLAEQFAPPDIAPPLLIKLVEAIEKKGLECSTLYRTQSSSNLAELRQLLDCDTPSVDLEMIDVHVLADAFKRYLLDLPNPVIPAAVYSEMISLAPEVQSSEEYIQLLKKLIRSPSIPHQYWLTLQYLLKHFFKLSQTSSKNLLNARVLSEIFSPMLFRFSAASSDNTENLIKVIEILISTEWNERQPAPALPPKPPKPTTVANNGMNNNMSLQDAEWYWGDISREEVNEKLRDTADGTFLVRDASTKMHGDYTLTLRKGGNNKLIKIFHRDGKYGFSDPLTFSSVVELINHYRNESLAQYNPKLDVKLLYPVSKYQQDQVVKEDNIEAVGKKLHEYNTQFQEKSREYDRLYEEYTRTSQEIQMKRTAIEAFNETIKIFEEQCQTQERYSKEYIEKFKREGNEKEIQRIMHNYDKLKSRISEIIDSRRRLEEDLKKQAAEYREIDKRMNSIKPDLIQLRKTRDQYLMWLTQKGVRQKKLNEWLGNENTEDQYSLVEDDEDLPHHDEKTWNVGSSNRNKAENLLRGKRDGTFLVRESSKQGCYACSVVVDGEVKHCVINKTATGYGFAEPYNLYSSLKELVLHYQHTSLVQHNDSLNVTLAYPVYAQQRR
T1 sequence (O00329 whole entry): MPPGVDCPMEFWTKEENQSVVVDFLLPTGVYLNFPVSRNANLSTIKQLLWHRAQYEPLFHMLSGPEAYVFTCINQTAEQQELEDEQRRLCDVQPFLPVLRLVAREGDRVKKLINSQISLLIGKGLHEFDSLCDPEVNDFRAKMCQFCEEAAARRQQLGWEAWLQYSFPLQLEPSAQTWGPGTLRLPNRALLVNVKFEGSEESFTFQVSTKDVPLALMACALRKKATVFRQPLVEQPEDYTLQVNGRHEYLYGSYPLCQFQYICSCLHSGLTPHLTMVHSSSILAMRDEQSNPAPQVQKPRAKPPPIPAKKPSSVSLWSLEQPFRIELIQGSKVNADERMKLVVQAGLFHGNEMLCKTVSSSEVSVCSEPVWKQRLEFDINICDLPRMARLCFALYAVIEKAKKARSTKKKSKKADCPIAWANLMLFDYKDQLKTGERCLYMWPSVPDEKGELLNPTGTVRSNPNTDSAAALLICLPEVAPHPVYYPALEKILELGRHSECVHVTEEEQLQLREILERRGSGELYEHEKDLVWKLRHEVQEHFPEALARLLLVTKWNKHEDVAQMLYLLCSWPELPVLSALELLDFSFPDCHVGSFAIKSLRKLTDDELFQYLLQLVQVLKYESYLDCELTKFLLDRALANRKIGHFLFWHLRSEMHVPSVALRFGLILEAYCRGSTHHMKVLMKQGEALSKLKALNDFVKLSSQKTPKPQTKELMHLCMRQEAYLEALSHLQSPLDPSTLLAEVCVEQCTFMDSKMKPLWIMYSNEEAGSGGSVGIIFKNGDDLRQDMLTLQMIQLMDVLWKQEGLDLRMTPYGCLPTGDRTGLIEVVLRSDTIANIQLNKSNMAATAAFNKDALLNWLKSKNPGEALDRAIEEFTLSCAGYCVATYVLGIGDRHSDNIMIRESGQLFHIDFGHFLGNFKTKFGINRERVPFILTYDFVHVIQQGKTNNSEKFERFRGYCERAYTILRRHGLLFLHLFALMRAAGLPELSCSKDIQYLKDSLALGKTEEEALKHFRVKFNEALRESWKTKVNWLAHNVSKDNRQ
T1 sequence (P27986 whole entry partner): as the sequence (P27986 whole entry partner) above
T4 sequence (P48736 whole entry): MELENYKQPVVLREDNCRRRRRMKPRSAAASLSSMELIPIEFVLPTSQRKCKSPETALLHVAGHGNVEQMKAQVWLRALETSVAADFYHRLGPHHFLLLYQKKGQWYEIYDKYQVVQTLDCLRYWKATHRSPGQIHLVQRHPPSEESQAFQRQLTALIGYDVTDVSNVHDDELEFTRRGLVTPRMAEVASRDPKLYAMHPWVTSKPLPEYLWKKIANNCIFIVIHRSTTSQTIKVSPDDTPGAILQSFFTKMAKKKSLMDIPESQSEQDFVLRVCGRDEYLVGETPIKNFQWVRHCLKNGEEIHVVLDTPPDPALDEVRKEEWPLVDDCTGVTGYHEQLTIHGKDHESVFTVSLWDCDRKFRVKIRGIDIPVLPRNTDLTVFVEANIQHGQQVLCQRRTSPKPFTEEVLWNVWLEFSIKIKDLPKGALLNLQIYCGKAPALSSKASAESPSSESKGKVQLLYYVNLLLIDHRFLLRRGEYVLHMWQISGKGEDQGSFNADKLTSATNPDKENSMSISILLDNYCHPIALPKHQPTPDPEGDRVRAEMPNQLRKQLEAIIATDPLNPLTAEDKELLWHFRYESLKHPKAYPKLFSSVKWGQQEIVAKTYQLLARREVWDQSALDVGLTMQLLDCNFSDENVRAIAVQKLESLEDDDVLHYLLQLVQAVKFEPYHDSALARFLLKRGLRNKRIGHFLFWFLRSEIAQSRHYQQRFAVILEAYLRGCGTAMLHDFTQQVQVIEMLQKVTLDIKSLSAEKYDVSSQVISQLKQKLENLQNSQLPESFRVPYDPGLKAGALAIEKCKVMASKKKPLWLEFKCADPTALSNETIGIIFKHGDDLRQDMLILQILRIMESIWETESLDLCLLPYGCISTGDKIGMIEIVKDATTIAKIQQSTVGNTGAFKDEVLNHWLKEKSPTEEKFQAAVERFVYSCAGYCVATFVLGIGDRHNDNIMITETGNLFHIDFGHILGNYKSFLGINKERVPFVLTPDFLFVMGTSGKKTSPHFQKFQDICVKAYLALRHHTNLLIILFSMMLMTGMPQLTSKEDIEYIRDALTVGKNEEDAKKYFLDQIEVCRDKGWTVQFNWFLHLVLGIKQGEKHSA
T3 sequence (P42336 whole entry): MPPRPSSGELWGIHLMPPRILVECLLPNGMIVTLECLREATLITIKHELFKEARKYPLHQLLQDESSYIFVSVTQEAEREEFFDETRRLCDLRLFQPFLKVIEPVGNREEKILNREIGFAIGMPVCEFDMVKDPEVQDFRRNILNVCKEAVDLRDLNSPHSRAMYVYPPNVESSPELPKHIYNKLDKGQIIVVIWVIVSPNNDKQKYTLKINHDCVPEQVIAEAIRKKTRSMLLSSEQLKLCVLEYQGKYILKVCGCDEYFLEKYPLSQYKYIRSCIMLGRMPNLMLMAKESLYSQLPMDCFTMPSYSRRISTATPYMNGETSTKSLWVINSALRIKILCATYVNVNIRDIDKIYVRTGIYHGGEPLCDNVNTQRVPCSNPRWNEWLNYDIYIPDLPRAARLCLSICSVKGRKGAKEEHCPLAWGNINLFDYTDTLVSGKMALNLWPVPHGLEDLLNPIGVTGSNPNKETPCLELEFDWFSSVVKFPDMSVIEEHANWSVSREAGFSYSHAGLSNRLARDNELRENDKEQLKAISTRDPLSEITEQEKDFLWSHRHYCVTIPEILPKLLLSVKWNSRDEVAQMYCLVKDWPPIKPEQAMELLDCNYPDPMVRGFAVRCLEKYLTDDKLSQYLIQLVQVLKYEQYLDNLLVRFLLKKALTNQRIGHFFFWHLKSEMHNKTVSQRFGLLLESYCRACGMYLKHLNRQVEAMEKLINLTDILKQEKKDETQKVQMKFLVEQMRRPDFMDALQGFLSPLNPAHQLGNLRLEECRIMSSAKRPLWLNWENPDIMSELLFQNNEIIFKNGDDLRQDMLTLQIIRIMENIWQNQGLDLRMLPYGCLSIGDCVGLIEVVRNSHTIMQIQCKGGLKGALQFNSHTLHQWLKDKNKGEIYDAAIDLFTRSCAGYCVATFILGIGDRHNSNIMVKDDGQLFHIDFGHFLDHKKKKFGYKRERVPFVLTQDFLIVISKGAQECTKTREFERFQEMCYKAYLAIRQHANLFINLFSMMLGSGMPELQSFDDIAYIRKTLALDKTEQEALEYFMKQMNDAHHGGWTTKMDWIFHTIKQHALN
T3 sequence (P27986 whole entry partner): as the sequence (P27986 whole entry partner) above

SMILES | IC50 (PI3Kδ (p110δ/p85α)(h)) | IC50 (PI3Kβ (p110β/p85α)(h)) | IC50 (PI3Kα (p110α/p85α)(h)) | IC50 (PI3Kγ (p120γ)(h))
C[C@H](Nc1ncnc2ccc(C#N)cc12)c1cc2cccc(-c3cncnc3)c2c(=O)n1-c1ccccc1 [Example 32, (S)-4-((1-(1-oxo-2-phenyl-8-(pyrimidin-5-yl)-1,2-dihydroisoquinolin-3-yl)ethyl)amino)quinazoline-6-carbonitrile] | 2 nM | 4800 nM | 1730 nM | 416 nM
COc1ncc(-c2cccc3cc([C@H](C)Nc4ncnc5ccc(C#N)cc45)n(-c4ccccc4)c(=O)c23)cn1 [Example 33, (S)-4-((1-(8-(2-methoxypyrimidin-5-yl)-1-oxo-2-phenyl-1,2-dihydroisoquinolin-3-yl)ethyl)amino)quinazoline-6-carbonitrile] | 10 nM | 6690 nM | 1240 nM | 155 nM
CCOc1ncc(-c2cccc3cc([C@H](C)Nc4ncnc5ccc(C#N)cc45)n(-c4ccccc4)c(=O)c23)cn1 [Example 34, (S)-4-((1-(8-(2-ethoxypyrimidin-5-yl)-1-oxo-2-phenyl-1,2-dihydroisoquinolin-3-yl)ethyl)amino)quinazoline-6-carbonitrile] | 17 nM | 7390 nM | 1350 nM | 324 nM
C[C@H](Nc1ncnc2ccc(C#N)cc12)c1cc2cccc(-c3cnc(N(C)C)nc3)c2c(=O)n1-c1ccccc1 [Example 35, (S)-4-((1-(8-(2-(dimethylamino)pyrimidin-5-yl)-1-oxo-2-phenyl-1,2-dihydroisoquinolin-3-yl)ethyl)amino)quinazoline-6-carbonitrile] | 25 nM | 5310 nM | 673 nM | 93 nM
C[C@H](Nc1ncnc2ccc(C#N)cc12)c1cc2cccc(-c3cnc(C4CC4)nc3)c2c(=O)n1-c1ccccc1 [Example 37, (S)-4-((1-(8-(2-cyclopropylpyrimidin-5-yl)-1-oxo-2-phenyl-1,2-dihydroisoquinolin-3-yl)ethyl)amino)quinazoline-6-carbonitrile] | 10 nM | 8760 nM | 418 nM | 67 nM
Cc1ncc(-c2cccc3cc([C@H](C)Nc4ncnc5ccc(C#N)cc45)n(-c4ccc(F)cc4)c(=O)c23)cn1 [Example 38, (S)-4-((1-(2-(4-fluorophenyl)-8-(2-methylpyrimidin-5-yl)-1-oxo-1,2-dihydroisoquinolin-3-yl)ethyl)amino)quinazoline-6-carbonitrile] | 26 nM | 9820 nM | 635 nM | 67 nM
CCOc1ncc(-c2cccc3cc([C@H](CC)Nc4ncnc5ccc(C#N)cc45)n(-c4ccccc4)c(=O)c23)cn1 [Example 41, (S)-4-((1-(8-(2-ethoxypyrimidin-5-yl)-1-oxo-2-phenyl-1,2-dihydroisoquinolin-3-yl)propyl)amino)quinazoline-6-carbonitrile] | 2 nM | 9380 nM | 909 nM | 489 nM
C[C@H](Nc1ncnc2cccc(F)c12)c1cc2cccc(-c3cnc(N)nc3)c2c(=O)n1-c1ccccc1 [Example 43, (S)-8-(2-aminopyrimidin-5-yl)-3-(1-((5-fluoroquinazolin-4-yl)amino)ethyl)-2-phenylisoquinolin-1(2H)-one] | 13 nM | 8860 nM | 2670 nM | 283 nM
CC(C)[C@H](Nc1ncnc2cccc(F)c12)c1cc2cccc(-c3cnc(N)nc3)c2c(=O)n1-c1ccccc1 [Example 46, (S)-8-(2-aminopyrimidin-5-yl)-3-(1-((5-fluoroquinazolin-4-yl)amino)-2-methylpropyl)-2-phenylisoquinolin-1(2H)-one] | 12 nM | 7950 nM | 2950 nM | 1580 nM
